Experimental data: publication PMC8308784, “Novel Purine Chemotypes with Activity against Plasmodium falciparum and Trypanosoma cruzi” (Pharmaceuticals, 2021)
Several values for one entry are separate records, joined by “and”; a condition that tells them apart may be missing. Identical values can stand only once. Like-named read-outs stand apart in the source and are kept apart here.

Columns and labels:
Vero cells = assay: Vero cell toxicity assay (alamarBlue); format: cell-based, green monkey; conditions: 4 days; minimum value of the 95% CI, except BNZ (mean (SD))
Protocol: (§1) Human erythrocytes were purified from B+ Rh+ blood samples and maintained at 4 °C in incomplete RPMI medium. Vero (green monkey kidney epithelial cells), LLC-MK2 (Rhesus monkey kidney epithelial cells), and HepG2 (human liver epithelial cells) cultures were cultivated in DMEM supplemented with 1% penicillin–streptomycin (PS) and 10% heat-inactivated fetal bovine serum (FBS) at 37 °C, 5% CO2, and >95% humidity, as described in [31]. HepG2 cells were also supplemented with 10% non-essential amino acids. Vero and MK2 cells were passaged twice per week at 1:12 ratios, while HepG2 cells were passaged at a 1:8 ratio.
(§2) Vero and HepG2 cells were detached, centrifuged, and resuspended in DMEM without phenol red. Cell viability was checked upon cell counting with trypan blue staining. Then, Vero and HepG2 cells were diluted at a concentration of 5 × 10^5 and 3.2 × 10^5 cells per mL, respectively, before adding 100 µL per well to the 96-well plate. Each run contained its own negative (untreated cells) and positive (medium alone) controls. Plates were incubated at 37 °C for 4 days in the case of Vero, or 2 in the case of HepG2 cells. Assay readout was made by adding 50 µL per well of a PBS solution containing 10% alamarBlue reagent (Thermo Fisher Scientific); then, plates were incubated for another 6 h at 37 °C, before recording the fluorescence intensity with a Tecan Infinite M Nano+ reader (excitation: 530 nm, emission: 590 nm).
(§3) Absorbance values derived from the anti-T. cruzi assays and fluorescence values from the anti-P. falciparum and cell toxicity assays were normalized to the controls. In the primary screening at three fixed doses, the compounds’ inhibitory activity was expressed as a percentage of the negative control (100% parasitic growth). In dose–response assays, the compounds’ IC50 and TC50 values were determined with GraphPad Prism 7 software (version 7.00, 2016), using a non-linear regression analysis model defined by the following equation: Y=100 ÷(1+10^((LogIC50−X)×HillSlope))

P. falciparum 3D7 = assay: P. falciparum primary screening at three fixed concentrations; format: cell-based; conditions: average of at least three experiments
Protocol: Apicomplexan parasite cultures were maintained at 3% hematocrit under an atmosphere of 37 °C in 93% N2, 5% CO2, and 2% O2, following standard methods. Synchronized cultures were obtained via 5% sorbitol lysis.
[…] Conditions were tested in triplicate for every concentration, and the test was repeated when the standard deviation was above 10% for any concentration. Z-values varied between 0.83 and 0.98 in the different plates analyzed. Selected compounds (12.3% potential hit rate) were further analyzed via standard growth inhibition assays, carried out as previously described in [54]. Briefly, parasitemia was adjusted to 1–1.3%, with >90% rings after sorbitol synchronization. Two hundred microliters of parasite culture were plated in 96-well microplates and incubated for 48 h at 37 °C in the presence of decreasing concentrations of the tested compounds, in triplicate. Parasitemia was determined by fluorescence-assisted cell sorting (FACS). Non-infected RBCs and samples containing parasitized RBCs (including controls with DMSO as carrier solvent) were diluted in PBS to a final concentration of ~1–10 × 10^6 cells/mL. The cell suspension was stained with SYTO 11 (0.5 mM stock in DMSO, Thermo Fisher Scientific, Waltham, MA, USA), to a final concentration of 0.5 μM. Samples were analyzed in a Becton Dickinson FACSCalibur. Sample excitation was carried out using a 488-nm, air-cooled argon-ion laser at a power of 15 mW, using forward and side scatter to gate the RBC population, and SYTO 11 green fluorescence (530 nm, FITC filter) was collected in a logarithmic scale. The single-cell population was selected on a forward–side scattergram, and the green fluorescence from this population was analyzed. Parasitemia was expressed as the number of parasitized cells per 100 erythrocytes.
as §3

HepG2 cells = assay: HepG2 cell toxicity assay (alamarBlue); format: cell-based, human; conditions: 2 days; minimum value of the 95% CI, except BNZ (mean (SD))
Protocol: as §1, §2, §3

[1] = test system: T. cruzi intracellular amastigotes; assay: Antiamastigote growth inhibition assay; format: cell-based; conditions: intracellular amastigotes in Vero cells, mean (SD), read-out: T. cruzi IC50 b (antiamastigote assay)
Protocol: Vero cells were seeded in T-175 flasks (5 × 10^6 cells per flask) in DMEM supplemented with 1% penicillin–streptomycin and 10% FBS, and cultured for 24 h. Then, cells were washed once with PBS, and free-swimming trypomastigotes (1 × 10^7 trypomastigotes per flask; MOI = 1) in assay medium were added and allowed 18 h to infect. After that, infected cell monolayers were washed with PBS and detached. Cells were counted and diluted to a concentration of 5 × 10^5 cells per mL, before adding 100 µL per well to test plates already containing the drugs dispensed as described above. In all cases, we included BNZ as control drug, and each plate contained its own negative (Vero cells and parasites) and positive (Vero cells) controls.
as §3

[2] = test system: T. cruzi Tulahuen strain expressing β-galactosidase; assay: anti-T. cruzi dose-response growth inhibition assay (Vero cells plus trypomastigotes, CPRG readout); format: cell-based; conditions: Vero cells plus trypomastigotes, MOI 1, four days, mean (SD), read-out: T. cruzi IC50 a (anti-T. cruzi assay)
Protocol: T. cruzi parasites from the Tulahuen strain (discrete typing unit (DTU) VI) expressing β-galactosidase were maintained in culture by the infection of LLC-MK2 cells in DMEM supplemented with 2% FBS and 1% penicillin–streptomycin–glutamine (PSG), as described in [52]. When free-swimming trypomastigotes were released to the culture medium, they were centrifuged for 7 min at 2500 rpm and allowed to swim out of the pellet. Trypomastigotes were used to maintain the parasite cycle, or for the performance of the antiparasitic assays.
T. cruzi growth was primarily analyzed under three different concentrations ([…]) of the 81 compounds. Conditions were tested in triplicate for every concentration. Z-values varied between 0.81 and 0.92 in the different plates analyzed. Selected compounds (34.6% potential hit rate) were further analyzed via standard growth inhibition assays. The Z-values of dose–response assays correlated with those previously reported. For both assays, Vero cells and trypomastigotes from the Tulahuen T. cruzi strain expressing β-galactosidase were harvested, centrifuged, and resuspended in DMEM without phenol red supplemented with 1% PSG, 2% FBS, 1 mM sodium pyruvate, and 25 mM HEPES. Vero cells and trypomastigotes were counted, diluted at a concentration of 1 × 10^6 cells/mL each, and mixed 1:1 (v/v). Then, 100 μL of that mixture was added per well to the plates already containing the compounds. Each well contained 50,000 host cells and 50,000 parasites, i.e., multiplicity of infection (MOI) = 1. BNZ was used as control of maximal drug growth inhibition in each round, whereas each plate contained its own negative control (maximum parasite growth; Vero cells plus parasites without drugs) and positive control (minimum parasite growth; trypomastigote forms alone marking an enzymatic zero time or baseline galactosidase activity). After four days at 37 °C, 50 µL of a PBS solution containing 0.25% NP40 and 500 µM chlorophenol red-β-D-galactopyranoside (CPRG) substrate were added per well [32]. Plates were incubated at 37 °C for 4 h, and their absorbance read out at 590 nm using an Epoch Gene5 spectrophotometer.
as §3

Compound | Vero Cells TC50 (Vero cells) | Primary screening, parasite growth relative to the negative control (P. falciparum 3D7; compound at 1 µM) [%] | Primary screening, parasite growth relative to the negative control (P. falciparum 3D7; compound at 10 µM) [%] | Primary screening, parasite growth relative to the negative control (P. falciparum 3D7; compound at 100 µM) [%] | HepG2 Cells TC50 (HepG2 cells) | IC50 [1] [µM] | IC50 [2] [µM] | IC50 ([1]; Trypanosoma cruzi) [µM] | IC50 ([2]; Trypanosoma cruzi, TULAHUEN, 96 h) [µM]
CN1CCN(n2cnc3c(OCc4ccccc4)ncnc32)CC1 [Compound 29] | >1000 µM | 100.58 | 98.35 | 63.21 | >1000 µM | 157 | 4.86 | – | –
O=C(Cn1ccnc1[N+](=O)[O-])NCc1ccccc1 [BNZ, benznidazole, reference compound] | 209.5 (15.0) µM and 209.5 µM | – | – | – | 255.3 (10.8) µM and 255.3 µM | – | – | 1.82 | 1.72
